The test system of assay [1] is purified human eosinophils. In words: In vitro eosinophil chemotaxis assay (Transwell). The following applies: for IC50: Homo sapiens, Eosinophil, 1 μM histamine in lower chamber, read-out: IC50 in blocking 1 μM histamine-induced eosinophil chemotaxis; for effect on histamine-induced eosinophil chemotaxis: antagonist 10 μM in both chambers; for EC50: Transwell, 2 h. The format is cell-based. As to the method: Transwells (Costar, Cambridge, Mass.) with 5 μm pore size were coated with 100 μl of 100 ng/ml human fibronectin (Sigma) for 2 h at room temperature. After removal of excess fibronectin, 600 μl of RPMI-1640 medium containing 0.5% BSA and different concentrations of histamine (0.01-100 μM) was added to the bottom chamber, Eosinophils (2×10^5/well) were added to the top chamber. Histamine receptor analogues (diphenhydramine, ranitidine, thioperamide, Compound A or Compound B) were added to both the top and bottom chambers to a final concentration of 10 μM or at other concentration as stated in figure legends. The plates were incubated for 2 h at 37° C. and the number of cells migrated to the bottom chamber was counted for 1 min using flow cytometer.

Assay [2] relates to human eosinophils. In words: Eosinophil shape change in human PMNL by flow cytometry (GAFS assay). The assay is classed as cell-based. Particulars: for IC50: Homo sapiens, Eosinophil, 1 μM histamine, FIG. 4B; for effect on histamine-induced eosinophil shape change: antagonist 10 μM, 1 μM histamine 10 min; for agonist effect on eosinophil shape change: FIG. 4C; for EC50: human PMNL, chemokines, FIG. 3D. Here is the method:
PMNL were prepared as described above and cells were resuspended in assay buffer (PBS containing 10 mM Ca^2+ and Mg^2+, 10 mM HEPES, 10 mM glucose, and 0.1% BSA, pH 7.2-7.4). Aliquots of cells (5×10^5 PMNL in 80 μl assay buffer) were pretreated with histamine receptor analogues (diphenhydramine, ranitidine, thioperamide, Compound A or H3 receptor antagonist) for 10 min at room temperature before addition of histamine or chemokines in 1.2-ml polypropylene cluster tubes (Costar, Cambridge, Mass.) in a final volume of 100 μl. The tubes were placed in a 37° C. water bath for 10 min (or as indicated), after which they were transferred to an ice-water bath, and 250 μl of ice-cold fixative (2% paraformaldehyde in PBS) was added to terminate the reaction and to maintain the cell shape change. […] Cell shape change was monitored in forward scatter signals. To identify eosinophils and neutrophils in PMNL, cells were stained on ice for 30 min with saturating concentrations of FITC-conjugated anti-CCR3 or anti-CD16 antibodies, which are specific for eosinophils or neutrophils, respectively. Samples after antibody staining were analyzed in flow cytometry.

For assay [3], the system named is eosinophils in human whole blood. The assay can be described thus: Whole blood eosinophil shape change assay with ranitidine co-treatment (Example 1B). The assay is classed as cell-based. Particulars: FIG. 11. As to the method:
In this example, starting materials were obtained as described in Example 1A. Human whole blood samples were used to study eosinophil shape change response. Human blood samples collected from healthy donors were treated with 3.8% tri-sodium citrate as anti-coagulator (or other anti-coagulators) and centrifuges at 300 rpm. The samples were used for experiments within 1 hour. […] The cell shape change was analyzed on a FACScan flow cytometer (Becton Dickinson, Mountain View, Calif.). Eosinophils were gated based on their high autofluorescence relative to neutrophils and shape change was monitored in forward scatter signals. Data were acquired for 1500 high-fluorescence eosinophil events. Results are expressed as the percentage increase in FSC compared to unstimulated cells.

For assay [4], the system named is human eosinophils. The assay can be described thus: Cell surface expression of adhesion molecules on eosinophils by flow cytometry. The assay is classed as cell-based. Particulars: antagonist 10 μM. Here is the method: Purified eosinophils were used to study cell surface expression of adhesion molecules. Eosinophils were resuspended in PBS containing 10 mM Ca^2+ and Mg^2+, 10 mM HEPES, 10 mM glucose, and 0.1% BSA, pH 7.2-7.4. Aliquots of cells (5×10^5 PMNL) were pretreated with histamine receptor analogues (as described above) for 10 min before addition of histamine or chemokines in 1.2-ml polypropylene cluster tubes (Costar, Cambridge, Mass.) in a final volume of 100 μl. The tubes were placed in a 37° C. water bath for 10 min (or as indicated), after which they were transferred to an ice-water bath, and 250 μl of ice-cold fixative (0.5% paraformaldehyde in PBS) was added. Samples were then incubated on ice for 30 min with saturating concentration of either FITC or phycoerytherine-conjugated anti-CD11a, anti-CD11b or anti-CD54 antibodies, washed, and then analyzed by flow cytometry.
A general note: In flow cytometry, cells or beads pass a laser one at a time.

The subject of assay [5] is eosinophils in human whole blood. In words: Whole blood eosinophil shape change GAFS assay (Example 1A). The assay is classed as cell-based. Particulars: for agonist effect on eosinophil shape change in whole blood: FIGS. 9A and 9B. As to the method:
Starting materials were obtained as described in the experiments above. Human whole blood samples were used to study eosinophil shape change response. Human blood samples collected from healthy donors were treated with 3.8% tri-sodium citrate as anti-coagulator (or other anti-coagulators) and centrifuges at 300 rpm. The samples were used for experiments within 1 hour. Aliquots of 80 μl whole blood were pretreated with histamine receptor analogues (such as H1 receptor antagonist diphenhydramine, H2 antagonist ranitidine, H4 receptor antagonists thioperamide and Compound A, and H3 receptor antagonist Compound B) for 10 minutes before addition of histamine or chemokines in 1.2-ml polypropylene cluster tubes (Costar, Cambridge, Mass.) in a final volume of 100 μl. The tubes were placed in a 37° C. water bath for 10 min, after which they were transferred to an ice-water bath, and 250 μl of ice-cold fixative (2% paraformaldehyde in PBS or other fixatives) was added to terminate the reaction and to maintain the cell shape change. Red cells were lysed with 3 ml Qiagen lysis solution (Qiagen, Valencia, Calif.) for 10 minutes at 4° C. Leukocytes were recovered by centrifugation at 2000 rpm for 5 minutes, washed once with either PBS containing 10 mM Ca^2+ and Mg^2+, 10 mM HEPES, 10 mM glucose, and 0.1% BSA (for FIGS. 10 and 11) or PBS containing 0.5% BSA and 2 mM EDTA (for other figures), and then resuspended in the same buffer. The cell shape change was analyzed on a FACScan flow cytometer (Becton Dickinson, Mountain View, Calif.). Eosinophils were gated based on their high autofluorescence relative to neutrophils and shape change was monitored in forward scatter signals. Data were acquired for 1500 high-fluorescence eosinophil events. The results are expressed as the percentage increase in FSC compared to unstimulated cells. Results obtained are provided in the Tables I and II, below, which also correspond to FIG. 7 and FIG. 8, respectively.

Assay [6] concerns human eosinophils. The following applies: cited from earlier work.
[7] abbreviates: read-out: IC50 in blocking 1 μM histamine-induced eosinophil shape change.
[8] abbreviates: histamine 0.1 uM + compound A 10 uM.
The mark [9] stands for this setting: histamine 1 uM + compound A 10 uM.
[10] abbreviates: histamine 10 uM + compound A 10 uM.

Read-outs that look alike come from different tables or passages of the source.

As usually defined, the IC50 is the concentration that inhibits the measured activity by half. The EC50 is the concentration at which the effect is half-maximal.

For the molecule `CN1CCN(C(=O)c2cc3cc(Cl)ccc3[nH]2)CC1` [Compound A, (5-chloro-1H-indol-2-yl)-(4-methyl-piperazin-1-yl)-methanone], the 50% inhibitory concentration (IC50) in assay [1] was determined as 86 nM; with human eosinophils [2] (setting [7]), 270 nM. Also, the “effect on histamine-induced eosinophil chemotaxis” value in assay [1] is “inhibited completely”. Further, the “effect on histamine-induced eosinophil shape change” value in the assay with human eosinophils [2] is “blocked the histamine-induced eosinophil shape change completely”. Further, the “effect on H4 receptor-dependent shape change (histamine + ranitidine)” value in assay [3] is given as “antagonized”. Also, the “effect on histamine-induced up-regulation of CD11b/CD18 and CD54 expression” value (“effect … of CD11b/CD18 and CD54 expression” for short) in the assay on human eosinophils [4] is recorded as “abolished”. The “GeoMean (FSC of eosinophils)” value turned out to be 268.1 in assay [5] (histamine 0.00 uM + Compound A 10 uM), 272.1 in assay [5] (setting [8]), 270.9 in assay [5] (setting [9]) and 267.3 in assay [5] (setting [10]). Also, the “% change (increase in FSC compared to unstimulated cells)” value in assay [5] (histamine 0 uM + compound A 10 uM) was 0.0%; in assay [5] (setting [8]), 1.5%; in assay [5] (setting [9]), 1.1%; in assay [5] (setting [10]) it was −0.3%. Besides, the “effect on eosinophil shape changes induced by histamine from 0.1 to 10 μM” value in assay [5] (whole blood, FIG. 8) is given as “blocked”.

On to `Cc1ccn2cc(-c3ccc(OCCCN4CCCCC4)cc3)nc2c1` [Compound B, 7-methyl-2-[4-(3-piperidin-1-yl-propoxy)-phenyl]-imidazo[1,2-a]pyridine], for which, in assay [1], the “effect on histamine-induced eosinophil chemotaxis” value is given as “minimal”. Also, the IC50 with human eosinophils [2] (read-out: IC50 in blocking 1 μM histamine-induced eosinophil shape change (ineffective up to)) is greater than 30000 nM. For the same molecule, in the assay with human eosinophils [2], the “effect on histamine-induced eosinophil shape change” value is reported as “did not show any inhibitory effects”. In addition, the “effect … of CD11b/CD18 and CD54 expression” value in the assay on human eosinophils [4] is “ineffective”.

For `NC(=NCc1ccc(Cl)cc1)SCCCc1cnc[nH]1` [clobenpropit], the “agonist effect on eosinophil shape change” value with human eosinophils [2] was “partial shape change”. For the same molecule, in assay [5], the “agonist effect on eosinophil shape change in whole blood” value is “mimic histamine in inducing eosinophil shape change”.

Turning to `CN(C)CCOC(c1ccccc1)c1ccccc1` [diphenhydramine], in assay [1], the “effect on histamine-induced eosinophil chemotaxis” value was “minimal”. In addition, the “effect on histamine-induced eosinophil shape change” value with human eosinophils [2] is listed as “did not show any inhibitory effects”. Also, the “effect … of CD11b/CD18 and CD54 expression” value in the assay with human eosinophils [4] is listed as “ineffective”.

For the molecule `N=C(N)SCCc1cnc[nH]1` [imetit], the “agonist effect on eosinophil shape change” value with human eosinophils [2] is reported as “partial shape change”. The “agonist effect on eosinophil shape change in whole blood” value in assay [5] is “mimic histamine in inducing eosinophil shape change”.

On to `S=C(NC1CCCCC1)N1CCC(c2cnc[nH]2)CC1` [thioperamide], for which, in assay [1], the IC50 came out at 519 nM and the “effect on histamine-induced eosinophil chemotaxis” value is given as “inhibited completely”. In the assay on human eosinophils [2] (setting [7]), the IC50 turned out to be 128 nM. In addition, in the assay on human eosinophils [2], the “effect on histamine-induced eosinophil shape change” value was “blocked the histamine-induced eosinophil shape change completely”. Besides, in the assay on human eosinophils [6], the “effect on eosinophil chemotaxis toward histamine” value is recorded as “blocked”. For the same molecule, the “effect … of CD11b/CD18 and CD54 expression” value with human eosinophils [4] is listed as “abolished”.

Consider “MCP-3: chemokine purchased from R&D Systems”, for which the EC50 in assay [1] came to 43 nM; in the assay with human eosinophils [2], 0.202 nM.

In the assay with human eosinophils [2], “eotaxin: chemokine purchased from R&D Systems” yielded an EC50 of 0.017 nM.

B1: eotaxin-2: chemokine, positive control in the whole blood assay (protein, UniProt O00175 27-119, looked up)
C-C motif chemokine 24: VVIPSPCCMFFVSKRIPENRVVSYQLSSRSTCLKAGVIFTTKKGQQFCGDPKQEWVQRYMKNLDAKQKKASPRARAVAVKGPVQRYPGNQTTC
Regarding B1, the EC50 in assay [1] came out at 1.9 nM; in the assay with human eosinophils [2], 0.021 nM. Moreover, the “% change (increase in FSC compared to unstimulated cells)” value in assay [5] (Eotaxin2 0.01 nM) is 3.5%; in assay [5] (Eotaxin2 0.1 nM), 1.0%; in assay [5] (Eotaxin2 1 nM), 26.3%; in assay [5] (Eotaxin2 10 nM) it was 53.4%; in assay [5] (Eotaxin2 100 nM), 19.4%. The “GeoMean (FSC of eosinophils)” value is 233.4 in assay [5] (Eotaxin2 0.01 nM); 227.7 in assay [5] (Eotaxin2 0.1 nM); 284.7 in assay [5] (Eotaxin2 1 nM); 346.0 in assay [5] (Eotaxin2 10 nM); 269.3 in assay [5] (Eotaxin2 100 nM).

Source of the values: patent publication US20080102476A1, “Analyzing Histamine H4 Receptor-Mediated Effects In Whole Blood” (priority 2003, published 2008).
